± gives the expanded uncertainty stated by the source.
Details: 293.15 K; 101.33 kPa; Liquid; Vibrating tube method

Structure (SMILES) | mass density [kg/m3]
COS(=O)(=O)[O-].C[N+](CCO)(CCO)CCO [tris(2-hydroxyethyl) methylammonium methylsulfate] | 1347.2 ± 14
CCOS(=O)(=O)[O-].CCn1cc[n+](C)c1 [1-ethyl-3-methylimidazolium ethyl sulfate] | 1236.7 ± 13
CCn1cc[n+](C)c1.CS(=O)(=O)[O-] [1-ethyl-3-methylimidazolium methanesulfonate] | 1244.4 ± 13
CC(CC(C)(C)C)CP(=O)([O-])CC(C)CC(C)(C)C.CCCCCCCCCCCCCC[P+](CCCCCC)(CCCCCC)CCCCCC | 894 ± 11

Results, then the compound that gave them:

mass density [kg/m3] | Structure (SMILES)
1119.2 ± 12 | CCn1cc[n+](C)c1.N#C[S-] [1-ethyl-3-methylimidazolium thiocyanate]
1101.5 ± 12 | CC(=O)[O-].CCn1cc[n+](C)c1 [1-ethyl-3-methylimidazolium acetate]

Same assay, conditions: 298.15 K; 101.33 kPa; Liquid; Vibrating tube method

Structure (SMILES) | mass density [kg/m3]
COS(=O)(=O)[O-].C[N+](CCO)(CCO)CCO [tris(2-hydroxyethyl) methylammonium methylsulfate] | 1344.3 ± 14
CCOS(=O)(=O)[O-].CCn1cc[n+](C)c1 [1-ethyl-3-methylimidazolium ethyl sulfate] | 1233.2 ± 12
CCn1cc[n+](C)c1.CS(=O)(=O)[O-] [1-ethyl-3-methylimidazolium methanesulfonate] | 1240.9 ± 13
CC(CC(C)(C)C)CP(=O)([O-])CC(C)CC(C)(C)C.CCCCCCCCCCCCCC[P+](CCCCCC)(CCCCCC)CCCCCC | 890.8 ± 11

Second part, the compound after the results:

mass density [kg/m3] | Structure (SMILES)
1116.1 ± 12 | CCn1cc[n+](C)c1.N#C[S-] [1-ethyl-3-methylimidazolium thiocyanate]
1098.3 ± 12 | CC(=O)[O-].CCn1cc[n+](C)c1 [1-ethyl-3-methylimidazolium acetate]

Same assay, conditions: 303.15 K; 101.33 kPa; Liquid; Vibrating tube method

Structure (SMILES) | mass density [kg/m3]
COS(=O)(=O)[O-].C[N+](CCO)(CCO)CCO [tris(2-hydroxyethyl) methylammonium methylsulfate] | 1341.4 ± 13
CCOS(=O)(=O)[O-].CCn1cc[n+](C)c1 [1-ethyl-3-methylimidazolium ethyl sulfate] | 1229.8 ± 12
CCn1cc[n+](C)c1.CS(=O)(=O)[O-] [1-ethyl-3-methylimidazolium methanesulfonate] | 1237.4 ± 13
CC(CC(C)(C)C)CP(=O)([O-])CC(C)CC(C)(C)C.CCCCCCCCCCCCCC[P+](CCCCCC)(CCCCCC)CCCCCC | 887.7 ± 11

Next, values leading:

mass density [kg/m3] | Structure (SMILES)
1113 ± 12 | CCn1cc[n+](C)c1.N#C[S-] [1-ethyl-3-methylimidazolium thiocyanate]
1095.1 ± 12 | CC(=O)[O-].CCn1cc[n+](C)c1 [1-ethyl-3-methylimidazolium acetate]

Same assay, conditions: 308.15 K; 101.33 kPa; Liquid; Vibrating tube method

Structure (SMILES) | mass density [kg/m3]
COS(=O)(=O)[O-].C[N+](CCO)(CCO)CCO [tris(2-hydroxyethyl) methylammonium methylsulfate] | 1338.5 ± 13
CCOS(=O)(=O)[O-].CCn1cc[n+](C)c1 [1-ethyl-3-methylimidazolium ethyl sulfate] | 1226.3 ± 12
CCn1cc[n+](C)c1.CS(=O)(=O)[O-] [1-ethyl-3-methylimidazolium methanesulfonate] | 1233.9 ± 12
CC(CC(C)(C)C)CP(=O)([O-])CC(C)CC(C)(C)C.CCCCCCCCCCCCCC[P+](CCCCCC)(CCCCCC)CCCCCC | 884.6 ± 11

The next lines start with the values.

mass density [kg/m3] | Structure (SMILES)
1109.9 ± 12 | CCn1cc[n+](C)c1.N#C[S-] [1-ethyl-3-methylimidazolium thiocyanate]
1092 ± 12 | CC(=O)[O-].CCn1cc[n+](C)c1 [1-ethyl-3-methylimidazolium acetate]

Same assay, conditions: 313.15 K; 101.33 kPa; Liquid; Vibrating tube method

Structure (SMILES) | mass density [kg/m3]
COS(=O)(=O)[O-].C[N+](CCO)(CCO)CCO [tris(2-hydroxyethyl) methylammonium methylsulfate] | 1335.7 ± 13
CCOS(=O)(=O)[O-].CCn1cc[n+](C)c1 [1-ethyl-3-methylimidazolium ethyl sulfate] | 1222.9 ± 12
CCn1cc[n+](C)c1.CS(=O)(=O)[O-] [1-ethyl-3-methylimidazolium methanesulfonate] | 1230.5 ± 12
CC(CC(C)(C)C)CP(=O)([O-])CC(C)CC(C)(C)C.CCCCCCCCCCCCCC[P+](CCCCCC)(CCCCCC)CCCCCC | 881.5 ± 11

Further lines, results first:

mass density [kg/m3] | Structure (SMILES)
1106.9 ± 12 | CCn1cc[n+](C)c1.N#C[S-] [1-ethyl-3-methylimidazolium thiocyanate]
1088.9 ± 12 | CC(=O)[O-].CCn1cc[n+](C)c1 [1-ethyl-3-methylimidazolium acetate]

Same assay, conditions: 318.15 K; 101.33 kPa; Liquid; Vibrating tube method

Structure (SMILES) | mass density [kg/m3]
COS(=O)(=O)[O-].C[N+](CCO)(CCO)CCO [tris(2-hydroxyethyl) methylammonium methylsulfate] | 1332.9 ± 13
CCOS(=O)(=O)[O-].CCn1cc[n+](C)c1 [1-ethyl-3-methylimidazolium ethyl sulfate] | 1219.5 ± 12
CCn1cc[n+](C)c1.CS(=O)(=O)[O-] [1-ethyl-3-methylimidazolium methanesulfonate] | 1227 ± 12
CC(CC(C)(C)C)CP(=O)([O-])CC(C)CC(C)(C)C.CCCCCCCCCCCCCC[P+](CCCCCC)(CCCCCC)CCCCCC | 878.4 ± 11

More lines, now with the values ahead:

mass density [kg/m3] | Structure (SMILES)
1103.8 ± 12 | CCn1cc[n+](C)c1.N#C[S-] [1-ethyl-3-methylimidazolium thiocyanate]
1085.8 ± 12 | CC(=O)[O-].CCn1cc[n+](C)c1 [1-ethyl-3-methylimidazolium acetate]

Same assay, conditions: 323.15 K; 101.33 kPa; Liquid; Vibrating tube method

Structure (SMILES) | mass density [kg/m3]
COS(=O)(=O)[O-].C[N+](CCO)(CCO)CCO [tris(2-hydroxyethyl) methylammonium methylsulfate] | 1330.2 ± 13
CCOS(=O)(=O)[O-].CCn1cc[n+](C)c1 [1-ethyl-3-methylimidazolium ethyl sulfate] | 1216.2 ± 12
CCn1cc[n+](C)c1.CS(=O)(=O)[O-] [1-ethyl-3-methylimidazolium methanesulfonate] | 1223.7 ± 12
CC(CC(C)(C)C)CP(=O)([O-])CC(C)CC(C)(C)C.CCCCCCCCCCCCCC[P+](CCCCCC)(CCCCCC)CCCCCC | 875.3 ± 11

The remaining lines, values ahead:

mass density [kg/m3] | Structure (SMILES)
1100.8 ± 12 | CCn1cc[n+](C)c1.N#C[S-] [1-ethyl-3-methylimidazolium thiocyanate]
1082.8 ± 12 | CC(=O)[O-].CCn1cc[n+](C)c1 [1-ethyl-3-methylimidazolium acetate]

Same assay, conditions: 328.15 K; 101.33 kPa; Liquid; Vibrating tube method

Structure (SMILES) | mass density [kg/m3]
COS(=O)(=O)[O-].C[N+](CCO)(CCO)CCO [tris(2-hydroxyethyl) methylammonium methylsulfate] | 1327.4 ± 13
CCOS(=O)(=O)[O-].CCn1cc[n+](C)c1 [1-ethyl-3-methylimidazolium ethyl sulfate] | 1212.8 ± 12
CCn1cc[n+](C)c1.CS(=O)(=O)[O-] [1-ethyl-3-methylimidazolium methanesulfonate] | 1220.3 ± 12
CC(CC(C)(C)C)CP(=O)([O-])CC(C)CC(C)(C)C.CCCCCCCCCCCCCC[P+](CCCCCC)(CCCCCC)CCCCCC | 872.3 ± 11

Further lines, results first:

mass density [kg/m3] | Structure (SMILES)
1097.8 ± 12 | CCn1cc[n+](C)c1.N#C[S-] [1-ethyl-3-methylimidazolium thiocyanate]
1079.7 ± 12 | CC(=O)[O-].CCn1cc[n+](C)c1 [1-ethyl-3-methylimidazolium acetate]

From the NIST ThermoML archive (doi:10.1021/je400231q)
